Active and inactive are the calls of the source. No cut-off for these calls is given here.
What was measured:
[1] = Inhibition of MAO in mouse brain using serotonin as substrate; type: tissue-based
Mus musculus = assay: Antidepressant activity in mouse assessed as antagonism of tetrabenazine-induced symptoms at 10 mg/kg, ip administered 30 mins before 35 mg/kg, ip tetrabenazine challenge measured after 30 mins by arousal test; type: functional
Rattus norvegicus [2] = species on record: Rattus norvegicus; assay: Irreversible inhibition of MAO in rat brain using serotonin as substrate measured after dilution; type: tissue-based
Rattus norvegicus [3] = species on record: Rattus norvegicus; assay: Irreversible inhibition of MAO in rat brain using serotonin as substrate preincubated for 15 mins measured after dialysis; type: tissue-based
Rattus norvegicus [4] = species on record: Rattus norvegicus; assay: Inhibition of MAO in rat brain using serotonin as substrate preincubated for 15 mins; type: tissue-based

| SMILES | IC50 [1] [nM] | inhibition (INH) (Mus musculus) [%] | inhibition (Rattus norvegicus [2]) | inhibition (Rattus norvegicus [3]) [%] | inhibition (Rattus norvegicus [4]) [%] |
| --- | --- | --- | --- | --- | --- |
| CCCCCCOc1ccc2c(C3=NCCN3)cccc2c1 | 3400 | <30 |  |  |  |
| CCCCOc1ccc2c(C3=NCCN3)cccc2c1 | 32 | 60 |  |  |  |
| CCCCCCCOc1ccc(C2=NCCN2)c2ccccc12 | 400 | <30 | Active | 93 | 91 |
| CCCCOc1ccc(C2=NC(C)(C)CN2)c2ccccc12.Cl | 6000 | <30 |  |  |  |
| CCCCCOc1ccc(C2=NCCN2)c2ccccc12 | 91 | 50 |  |  |  |
| C#CCN(C)Cc1ccccc1 [PARGYLINE] | 1200 | 60 |  |  |  |
| CCCCCCOc1ccc(C2=NCCN2)c2ccccc12 | 350 | 40 |  |  |  |
| CCCOc1ccc(C2=NCCN2)c2ccccc12 | 91 | 60 |  |  |  |
| CCCCOc1c(CCC)cc(C2=NCCN2)c2ccccc12 | 4900 | <30 |  |  |  |
| CCCCOc1ccc(C2=NCCCN2)c2ccccc12 | 50 | 30 |  |  |  |
| CCCCOc1ccc(C2=NC(C)CN2)c2ccccc12 (stereo unspecified) | 60 | <60 |  |  |  |
| Oc1ccc(C2=NCCN2)c2ccccc12 | 12000 | <30 |  |  |  |
| c1ccc2c(c1)cc(C1=NCCN1)c1ccccc12 | 35000 | <30 |  |  |  |
| CCCCOc1ccc(C2=NCCN2)c2ccccc12 | 58 | 60 | Active | 77 | 96 |
| CCOc1ccc(C2=NCCN2)c2ccccc12 | 54 | 50 |  |  |  |

— ChEMBL document CHEMBL3243983, “2-(Alkoxyaryl)-2-imidazoline monoamine oxidase inhibitors with antidepressant activity” (J Med Chem, 1978)
